Experimental data reported in US6355799B1, “Substituted benzene compounds, process for their preparation, and herbicidal and defoliant compositions containing them” (ISK Americas Incorporated, priority 1997, dated 2002).

Tests used:
Assay type in all cases: in vivo
[1] = system: johnsongrass (Sorghum halepense, SORHA); assay: Pre-emerge test, greenhouse herbicide activity screening; settings: rating scale 0-100, 14 days after application
How it was run: (§1)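 Sandy loam pots; pre-emerge: sown 1 d pre-spray, surface-watered after, then bottom-watered. Post-emerge: sown 8–21 d before, 2–3 leaf stage, + 0.25% v/v NIS, bottom-watered. Acetone, 187 l/ha track spray, 15–1000 g ai/ha. 0–100 injury score, day 14.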

[2] = system: lambsquarters (Chenopodium album, CHEAL); assay: as above; settings: rating scale 0-100, 14 days after application
How it was run: as §1

[3] = system: large crabgrass (Digitaria sanguinalis, DIGSA); assay: as above; settings: rating scale 0-100, 14 days after application
How it was run: as §1

[4] = system: ivyleaf morningglory (Ipomoea hederacea, IPOHE); assay: as above; settings: rating scale 0-100, 14 days after application
How it was run: as §1

[5] = system: barnyardgrass (Echinochloa crus-galli, ECHCG); assay: as above; settings: rating scale 0-100, 14 days after application
How it was run: as §1

[6] = system: velvetleaf (Abutilon theophrasti, ABUTH); assay: as above; settings: rating scale 0-100, 14 days after application
How it was run: as §1

[7] = system: common ragweed (Ambrosia artemisizfolia L., AMBEL); assay: as above; settings: rating scale 0-100, 14 days after application
How it was run: as §1

[8] = system: green foxtail (Setaria viridis, SETVI); assay: as above; settings: rating scale 0-100, 14 days after application
How it was run: as §1

[9] = system: sicklepod (Cassia obtusifolia, CASOB); assay: as above; settings: rating scale 0-100, 14 days after application
How it was run: as §1

[10] = system: redroot pigweed (Amaranthus retroflexus, AMARE); assay: as above; settings: rating scale 0-100, 14 days after application
How it was run: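 Compounds in acetone were track-sprayed at 15-1000 g ai/ha (187 l/ha) on sandy loam pots: pre-emerge one day after seeding, post-emerge at 2-3 leaf stage with 0.25% v/v non-ionic surfactant. Phytotoxicity was rated 14 days later on a 0 (no damage) to 100 (complete death) scale.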

[11] = system: field corn (Zea mays L., var. Dekalb 535, CORN); assay: Pre-emerge test, crop safety; settings: rating scale 0-100, 14 days after application
How it was run: (§2)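 Visual ratings on a 0-100 scale (0 no damage, 100 all plants dead) were taken at 14 days after treatment. Rates of 15-1000 g ai/ha in acetone, 187 l/ha, were sprayed onto soil one day after planting (pre-emerge) or onto 2-3 leaf plants with 0.25% v/v surfactant (post-emerge).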

[12] = system: upland rice (Oryza sp., var. Tebonnet, RICE); assay: Pre-emerge test, crop safety; settings: rating scale 0-100, 14 days after application
How it was run: as §2

[13] = system: johnsongrass (Sorghum halepense, SORHA); assay: Post-emerge test, greenhouse herbicide activity screening; settings: rating scale 0-100 (0 no damage, 100 complete death), 14 days after application
How it was run: (§3)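 Compounds in acetone were track-sprayed at 15–1000 g ai/ha: pre-emergence onto soil sown the previous day, then top-watered to incorporate and later bottom-watered; post-emergence onto 2–3 leaf plants with 0.25% v/v surfactant, bottom-watered only. Ratings on a 0–100 phytotoxicity scale were taken at day 14.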

[14] = system: lambsquarters (Chenopodium album, CHEAL); assay: as above; settings: rating scale 0-100 (0 no damage, 100 complete death), 14 days after application
How it was run: as §3

[15] = system: large crabgrass (Digitaria sanguinalis, DIGSA); assay: as above; settings: rating scale 0-100 (0 no damage, 100 complete death), 14 days after application
How it was run: as §3

[16] = system: ivyleaf morningglory (Ipomoea hederacea, IPOHE); assay: as above; settings: rating scale 0-100 (0 no damage, 100 complete death), 14 days after application
How it was run: as §3

[17] = system: barnyardgrass (Echinochloa crus-galli, ECHCG); assay: as above; settings: rating scale 0-100 (0 no damage, 100 complete death), 14 days after application
How it was run: as §3

[18] = system: velvetleaf (Abutilon theophrasti, ABUTH); assay: as above; settings: rating scale 0-100 (0 no damage, 100 complete death), 14 days after application
How it was run: as §3

[19] = system: green foxtail (Setaria viridis, SETVI); assay: as above; settings: rating scale 0-100 (0 no damage, 100 complete death), 14 days after application
How it was run: as §3

[20] = system: sicklepod (Cassia obtusifolia, CASOB); assay: as above; settings: rating scale 0-100 (0 no damage, 100 complete death), 14 days after application
How it was run: as §3

[21] = system: redroot pigweed (Amaranthus retroflexus, AMARE); assay: as above; settings: rating scale 0-100 (0 no damage, 100 complete death), 14 days after application
How it was run: as §3

[22] = system: field corn (Zea mays L., var. Dekalb 535, CORN); assay: Post-emerge test, crop safety; settings: rating scale 0-100 (0 no damage, 100 complete death), 14 days after application
How it was run: as §1

[23] = system: upland rice (Oryza sp., var. Tebonnet, RICE); assay: Post-emerge test, crop safety; settings: rating scale 0-100 (0 no damage, 100 complete death), 14 days after application
How it was run: as §1

`CCCCCOC(=O)C(Cl)Cc1c(OC)c(Cl)cc(F)c1-n1c(=O)cc(C(F)(F)F)n(C)c1=O` (single isomer, unassigned) [14-11] was tested, and the “Pre-emerge herbicidal activity, phytotoxicity rating SORHA” value ([1]; 63 g ai/ha) was 0, the “Pre-emerge herbicidal activity, phytotoxicity rating SORHA” value ([1]; 250 g ai/ha) was 0 and the “Pre-emerge herbicidal activity, phytotoxicity rating CHEAL” value ([2]; 63 g ai/ha) was 70. The “Pre-emerge herbicidal activity, phytotoxicity rating CHEAL” value ([2]; 250 g ai/ha) was 100, the “Pre-emerge herbicidal activity, phytotoxicity rating DIGSA” value ([3]; 63 g ai/ha) was 50 and the “Pre-emerge herbicidal activity, phytotoxicity rating DIGSA” value ([3]; 250 g ai/ha) was 100. For the same compound, the “Pre-emerge herbicidal activity, phytotoxicity rating IPOHE” value ([4]; 63 g ai/ha) was 30, the “Pre-emerge herbicidal activity, phytotoxicity rating IPOHE” value ([4]; 250 g ai/ha) was 50 and the “Pre-emerge herbicidal activity, phytotoxicity rating ECHCG” value ([5]; 63 g ai/ha) was 0. For the same compound, the “Pre-emerge herbicidal activity, phytotoxicity rating ECHCG” value ([5]; 250 g ai/ha) was 0, the “Pre-emerge herbicidal activity, phytotoxicity rating ABUTH” value ([6]; 63 g ai/ha) was 50 and the “Pre-emerge herbicidal activity, phytotoxicity rating ABUTH” value ([6]; 250 g ai/ha) was 100. The “Pre-emerge herbicidal activity, phytotoxicity rating AMBEL” value ([7]; 63 g ai/ha) was 0, the “Pre-emerge herbicidal activity, phytotoxicity rating AMBEL” value ([7]; 250 g ai/ha) was 100 and the “Pre-emerge herbicidal activity, phytotoxicity rating SETVI” value ([8]; 63 g ai/ha) was 0. The “Pre-emerge herbicidal activity, phytotoxicity rating SETVI” value ([8]; 250 g ai/ha) was 50, the “Pre-emerge herbicidal activity, phytotoxicity rating CASOB” value ([9]; 63 g ai/ha) was 0 and the “Pre-emerge herbicidal activity, phytotoxicity rating CASOB” value ([9]; 250 g ai/ha) was 0. The “Pre-emerge herbicidal activity, phytotoxicity rating AMARE” value ([10]; 63 g ai/ha) was 100, the “Pre-emerge herbicidal activity, phytotoxicity rating AMARE” value ([10]; 250 g ai/ha) was 100 and the “Pre-emerge phytotoxicity rating, crop damage CORN” value ([11]; 63 g ai/ha) was 0. For the same compound, the “Pre-emerge phytotoxicity rating, crop damage CORN” value ([11]; 250 g ai/ha) was 0, the “Pre-emerge phytotoxicity rating, crop damage RICE” value ([12]; 63 g ai/ha) was 0 and the “Pre-emerge phytotoxicity rating, crop damage RICE” value ([12]; 250 g ai/ha) was 0. The “Post-emerge Herbicidal Activity, phytotoxicity rating SORHA” value ([13]; Rate 63 g ai/ha) was 50, the “Post-emerge Herbicidal Activity, phytotoxicity rating SORHA” value ([13]; Rate 250 g ai/ha) was 99 and the “Post-emerge Herbicidal Activity, phytotoxicity rating CHEAL” value ([14]; Rate 63 g ai/ha) was 50. For the same compound, the “Post-emerge Herbicidal Activity, phytotoxicity rating CHEAL” value ([14]; Rate 250 g ai/ha) was 100, the “Post-emerge Herbicidal Activity, phytotoxicity rating DIGSA” value ([15]; Rate 63 g ai/ha) was 99 and the “Post-emerge Herbicidal Activity, phytotoxicity rating DIGSA” value ([15]; Rate 250 g ai/ha) was 100. For the same compound, the “Post-emerge Herbicidal Activity, phytotoxicity rating IPOHE” value ([16]; Rate 63 g ai/ha) was 90, the “Post-emerge Herbicidal Activity, phytotoxicity rating IPOHE” value ([16]; Rate 250 g ai/ha) was 100 and the “Post-emerge Herbicidal Activity, phytotoxicity rating ECHCG” value ([17]; Rate 63 g ai/ha) was 100. For the same compound, the “Post-emerge Herbicidal Activity, phytotoxicity rating ECHCG” value ([17]; Rate 250 g ai/ha) was 100, the “Post-emerge Herbicidal Activity, phytotoxicity rating ABUTH” value ([18]; Rate 63 g ai/ha) was 80 and the “Post-emerge Herbicidal Activity, phytotoxicity rating ABUTH” value ([18]; Rate 250 g ai/ha) was 100. The “Post-emerge Herbicidal Activity, phytotoxicity rating SETVI” value ([19]; Rate 63 g ai/ha) was 80, the “Post-emerge Herbicidal Activity, phytotoxicity rating SETVI” value ([19]; Rate 250 g ai/ha) was 100 and the “Post-emerge Herbicidal Activity, phytotoxicity rating CASOB” value ([20]; Rate 63 g ai/ha) was 50. The “Post-emerge Herbicidal Activity, phytotoxicity rating CASOB” value ([20]; Rate 250 g ai/ha) was 70, the “Post-emerge Herbicidal Activity, phytotoxicity rating AMARE” value ([21]; Rate 63 g ai/ha) was 95 and the “Post-emerge Herbicidal Activity, phytotoxicity rating AMARE” value ([21]; Rate 250 g ai/ha) was 100. The “Post-emerge phytotoxicity rating CORN (crop damage)” value ([22]; Rate 63 g ai/ha) was 100, the “Post-emerge phytotoxicity rating CORN (crop damage)” value ([22]; Rate 250 g ai/ha) was 100 and the “Post-emerge phytotoxicity rating RICE (crop damage)” value ([23]; Rate 63 g ai/ha) was 10. For the same compound, the “Post-emerge phytotoxicity rating RICE (crop damage)” value ([23]; Rate 250 g ai/ha) was 20.
